Results published in PMC10800023 (Human Molecular Genetics, 2023).
Marks after values point to notes of the source that are not given here.

Experiments:
[1] = test system: B10-mdx mice; assay: Tail-suspension test 24 h after force-swim test (Study 2); assay type: in vivo, mouse; settings: daily dosing 4 weeks, vs vehicle B10-mdx
Description: Corticosteroid-treated mice were subjected to the force-swim test (FST) followed by the tail-suspension test (TST) 24 h later. During the TST, normal mice will struggle and constantly move. However, mice show depression-like behavior by quickly giving up, stop moving, and remaining still for a greater percentage of the time.
(§1) Study 2: The goal of the second study was to evaluate corticosteroid side effects and efficacy in a longer study (4 months). After 28 days of dosing, mice were tested for depression-like behavior using a measure of corticosteroid-induced depression (FST followed by TST). Muscle function was tested via grip strength. Tests for depression and for grip-strength were done in a blinded manner. After 4 months, mice were euthanized, and tissues were collected. Bone from whole left leg was collected for micro-CT analysis. The number of animals per group was as follows: WT, n = 16; B10-mdx, n = 15; corticosteroid-treated groups, n = 8–10.
• 1) Force-swim test: Animals were single housed and acclimated in the behavior room for 30 min prior to test. A clean 1-L beaker was filled with 700 to 800 ml of 23°C water. Each mouse was placed into the water for 6 min. The total immobility time was recorded. After the test, the animals were dried and placed in a cage on a heating pad for about 10 min before returning to the home cages. • 2) Tail-suspension test: Isolated mice were suspended 50 cm above the floor by surgical tape placed approximately 1 cm from the tip of the tail for 6 min. The total immobility time of mice was measured. Mice were considered immobile only when they hung passively and completely motionless.

[2] = test system: B10-mdx mice; assay: RNA-sequencing of tissues after 2 weeks of treatment (Study 1); settings: vs vehicle-treated B10-mdx
[3] = test system: B10-mdx mice; assay: Circulating lymphocytes and neutrophils (CBC) after 2 weeks (Study 1); assay type: in vivo, mouse
Description: It is understood that part of the efficacy of corticosteroids is via their impact on leukocyte trafficking, resulting in a decrease in lymphocyte and an increase in neutrophil counts in the blood within hours of drug administration. Corticostetoids regulate leukocyte trafficking via changes in adhesion molecules and cytokines, which likely reflects inhibition of NF-κB [39, 40]. The effect of the three corticosteroids on leukocyte trafficking was assessed in B10-mdx mice after 2 weeks of dosing (Study 1). No significant differences in neutrophil-to-lymphocyte ratio were seen between wildtype and B10-mdx mice (Fig. 6a).
Study 1: The goal of this study was to define the dose-response of each of the three corticosteroids. […] On Day 11, mice were fasted for 6 h and then blood was obtained to measure blood glucose. Blood glucose was measured using a glucometer (ACCU-CHECK) by tail bleeding. At the end of 14 days, mice were euthanized, and blood samples were evaluated for complete blood count (CBC) and plasma were collected for analysis of corticosterone levels, osteocalcin, creatine kinase, and cytokines. Brain, muscle, and liver were collected for RNAseq. The number of animals per group was as follows: WT, n = 15; B10-mdx, n = 11; corticosteroid-treated groups, n = 10–12.

[4] = test system: B10-mdx mice; assay: Femur bone density by micro-CT (Study 2); assay type: in vivo, mouse
Description: To evaluate the similarities and differences of potential side effects of the three corticosteroids, plasma/blood were evaluated ex vivo for their effects on endogenous corticosteroid after 14 days of dosing (Study 1) and glucose levels (Study 1) after 11 days of dosing. Bone formation was measured by evaluating osteocalcin levels in Study 1 after 14 days. Bone density was measured by micro-computed tomography (micro-CT) in Study 2 after 4 months.
as §1
Micro-CT analysis was performed by the Rutgers University Molecular Imaging Center (RUMIC). Briefly, skeletons were harvested at trial endpoint and stored in 70% ethanol and transferred for imaging analysis. Hindlimbs were soaked in isotonic saline solution overnight to rehydrate before imaging. […] The rotation step was 0.4° through 180° total rotation, and three images were averaged at each rotation step. Each distal femur was scanned separately, and images were saved. Scan images were reconstructed using Skyscan nRecon software.

[5] = test system: STAT1; assay: GRE-mediated STAT1 in cultured BMDM; assay type: cell-based, mouse; settings: for EC50: Mus musculus, BMDM, corticosteroid overnight, LPS 10 ng/ml 3 h
Excerpt: The immunosuppressive activity of corticosteroids is in part due to their inhibition of NF-κB-induced cytokines including TNF-α, IL-6, and IL-12. Furthermore, expression of some inflammatory-mediated proteins such as STAT1 is mediated via GREs, and not the NF-κB pathway. We therefore expanded murine bone marrow-derived macrophages (BMDM) in vitro, and after 5 days of culture tested the relative efficacy of different corticosteroids to prevent LPS-induced cytokine secretion.
BMDM mouse bone marrow derived macrophage (mBMDM) cultures were generated from the femur and tibia from two 7–11-week-old C57BL/6 mice. Briefly, bone marrow cells were carefully flushed out, suspended in ice-cold PBS, and spun down. After the supernatant was removed, the pelleted cells were resuspended in 2 ml (ammonium-Chloride-Potassium) ACK lysis buffer (Thermo Fisher, Cat# A1049201) and incubated for 3–4 min, followed by 14 ml ice-cold PBS, and then spun down. The pelleted cells were resuspended in 43 ml complete media [Roswell Park Memorial Institute (RPMI 1640), Gibco, Cat# 11875-093; 10% heat-inactivated fetal bovine serum (HiFBS), HyClone, Cat# SH30406.02; 1% 2 mM L-glutamine; 1% penicillin-streptomycin, Sigma, Cat# P4333-100ML; 1% MEM NEAA, Gibco, Cat# 11140-050; 1% Na Pyruvate, Gibco, Cat# 11360-070; 55 μM 2-Mercaptoethanol, Gibco, Cat#21985-023]. A total of 25 ng/ml M-CSF was added to the culture. Cells were dispensed as 200 μl per well into a 96-well tissue culture plate and incubated at 37°C, 5% CO2 for 4 days. On Day 5, media were removed and 100 μl fresh complete media containing M-CSF were added. Corticosteroids were added and cells incubated at 37°C and 5% CO2 overnight. Untreated cells were incubated with media. On Day 6, 10 ng/ml of lipopolysaccharide (LPS) was added and incubated at 37°C and 5% CO2 for 3 h followed by removal of cell media for cytokine analysis. Cytokines were measured using a Meso Scale Discovery (MSD), V-PLEX kit (V-PLEX Cat# K-15048D, www.mesoscale.com).

C[C@]12C=CC(=O)C=C1CC[C@@H]1[C@@H]2[C@@H](O)C[C@@]2(C)[C@H]1CC[C@]2(O)C(=O)CO [Prednisolone]
immobilization time in tail suspension test ([1]; high dose (5 mg/kg)): increased the immobilization time significantly
Number of genes, Quadriceps, Down-regulated ([2]; 1.2 mg/kg daily): 3855
Number of genes, Quadriceps, No Change ([2]; 1.2 mg/kg daily): 8205
Number of genes, Quadriceps, Up-regulated ([2]; 1.2 mg/kg daily): 4250
Number of genes, Quadriceps, Down-regulated ([2]; 2.4 mg/kg daily): 5216
Number of genes, Quadriceps, Up-regulated ([2]; 2.4 mg/kg daily): 6030
Number of genes, Quadriceps, Down-regulated ([2]; 5 mg/kg daily): 4173
Number of genes, Quadriceps, No Change ([2]; 5 mg/kg daily): 7883
Number of genes, Quadriceps, Up-regulated ([2]; 5 mg/kg daily): 4254
% decrease in fraction of lymphocytes at Day 14 from mdx vehicle ([3]; 1.2 mg/kg PO daily): 17%**
% increase in fraction of PMNs at Day 14 ([3]; 1.2 mg/kg PO daily): 64%**
% decrease in fraction of lymphocytes at Day 14 from mdx vehicle ([3]; 2.4 mg/kg PO daily): 18%**
% increase in fraction of PMNs at Day 14 ([3]; 2.4 mg/kg PO daily): 81%***
% decrease in fraction of lymphocytes at Day 14 from mdx vehicle ([3]; 5 mg/kg PO daily): 21%***
% increase in fraction of PMNs at Day 14 ([3]; 5 mg/kg PO daily): 92%****
bone density in the femur (micro-CT tissue mineral density) ([4]; 4 months, highest dose): significantly reduced bone density
EC50 [5]: 9.4 nM

C[C@@H]1C[C@H]2[C@@H]3CCC4=CC(=O)C=C[C@]4(C)C3=CC[C@]2(C)[C@@]1(O)C(=O)CO [Vamorolone]
immobilization time in tail suspension test ([1]; doses tested (deflazacort 1.25-15 mg/kg; vamorolone all doses 15, 30, 45 mg/kg)): increased the immobilization time significantly
Number of genes, Quadriceps, Down-regulated ([2]; 15 mg/kg daily): 3014
Number of genes, Quadriceps, No Change ([2]; 15 mg/kg daily): 9369
Number of genes, Quadriceps, Up-regulated ([2]; 15 mg/kg daily): 3927
Number of genes, Whole Brain, Down-regulated ([2]; 15 mg/kg daily): 138
Number of genes, Whole Brain, No Change ([2]; 15 mg/kg daily): 16068
Number of genes, Whole Brain, Up-regulated ([2]; 15 mg/kg daily): 104
Number of genes, Quadriceps, Down-regulated ([2]; 30 mg/kg daily): 3138
Number of genes, Quadriceps, No Change ([2]; 30 mg/kg daily): 10053
Number of genes, Quadriceps, Up-regulated ([2]; 30 mg/kg daily): 3119
Number of genes, Whole Brain, Down-regulated ([2]; 30 mg/kg daily): 2087
Number of genes, Whole Brain, No Change ([2]; 30 mg/kg daily): 11760
Number of genes, Whole Brain, Up-regulated ([2]; 30 mg/kg daily): 2463
Number of genes, Quadriceps, Down-regulated ([2]; 45 mg/kg daily): 331
Number of genes, Quadriceps, No Change ([2]; 45 mg/kg daily): 15364
Number of genes, Quadriceps, Up-regulated ([2]; 45 mg/kg daily): 615
Number of genes, Whole Brain, Down-regulated ([2]; 45 mg/kg daily): 1114
Number of genes, Whole Brain, No Change ([2]; 45 mg/kg daily): 14218
Number of genes, Whole Brain, Up-regulated ([2]; 45 mg/kg daily): 978
% decrease in fraction of lymphocytes at Day 14 from mdx vehicle ([3]; 15 mg/kg PO daily): (0.5%)
% increase in fraction of PMNs at Day 14 ([3]; 15 mg/kg PO daily): 7%
% decrease in fraction of lymphocytes at Day 14 from mdx vehicle ([3]; 30 mg/kg PO daily): 5%
% increase in fraction of PMNs at Day 14 ([3]; 30 mg/kg PO daily): 27%
% decrease in fraction of lymphocytes at Day 14 from mdx vehicle ([3]; 45 mg/kg PO daily): 14%**
% increase in fraction of PMNs at Day 14 ([3]; 45 mg/kg PO daily): 70%**
bone density measured by microCT ([4]; 4 months of treatment): not reaching significance
EC50 [5]: 7.6 nM
STAT1/IFN-γ Ratio ([5]; ratio of EC50 values): 10×
